In the supplement of paper PMC11061612:

Legend:
Test in all cases: combination Emax (second highest fraction inhibited in the dose matrix, 72 h); higher = more inhibition; extreme values may be limits of the assay
[1] = tested on: CAL-54 (Kidney Carcinoma)
How it was run: (§1)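 Cell lines in DMEM/F12 or RPMI with 10% FBS were plated in 1536-well plates, held 24 hours at 37°C, 5% CO2, then given two-drug dose matrices for 72 hours (DMSO typically 0.2%). Viability was read by CellTiter-Glo 2.0 luminescence and scaled as inhibition from 0 (vehicle wells) to 1 (blank wells). Combination Emax is the second-highest inhibition in the matrix; Bliss excess is observed combination effect minus expected EA + EB − EA·EB, EA and EB being single-agent effects.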

[2] = tested on: CAPAN-1 (Pancreatic Carcinoma)
How it was run: as §1

[3] = tested on: CTB-1 (B-Cell Non-Hodgkin's Lymphoma)
How it was run: as §1

[4] = tested on: EN (Endometrial Carcinoma)
How it was run: as §1

[5] = tested on: HDLM-2 (Hodgkin's Lymphoma)
How it was run: as §1

[6] = tested on: HO-1-u-1 (Oral Cavity Carcinoma)
How it was run: as §1

[7] = tested on: K5 (Thyroid Gland Carcinoma)
How it was run: as §1

[8] = tested on: KARPAS-231 (B-Cell Non-Hodgkin's Lymphoma)
How it was run: as §1

[9] = tested on: KYSE-410 (Esophageal Squamous Cell Carcinoma)
How it was run: as §1

[10] = tested on: LB771-HNC (Head and Neck Carcinoma)
How it was run: as §1

[11] = tested on: MDA-MB-468 (Breast Carcinoma)
How it was run: as §1

NB14 (Neuroblastoma) = tested on: NB14 (Neuroblastoma)
How it was run: as §1

NCI-H2461 (Mesothelioma) = tested on: NCI-H2461 (Mesothelioma)
How it was run: as §1

NCI-H2795 (Mesothelioma) = tested on: NCI-H2795 (Mesothelioma)
How it was run: as §1

[12] = tested on: RPMI-6666 (Non-Cancerous)
How it was run: as §1

SH-4 (Melanoma) = tested on: SH-4 (Melanoma)
How it was run: as §1

[13] = tested on: SU-DHL-6 (B-Cell Non-Hodgkin's Lymphoma)
How it was run: as §1

[14] = tested on: SUP-T1 (T-Lymphoblastic Leukemia)
How it was run: as §1

[15] = tested on: SW1271 (Small Cell Lung Carcinoma)
How it was run: as §1

[16] = tested on: UMC-11 (Other Solid Carcinomas)
How it was run: as §1

Row | SMILES | combination Emax [1] | combination Emax [2] | combination Emax [3] | combination Emax [4] | combination Emax [5] | combination Emax [6] | combination Emax [7] | combination Emax [8] | combination Emax [9] | combination Emax [10] | combination Emax [11] | combination Emax (NB14 (Neuroblastoma)) | combination Emax (NCI-H2461 (Mesothelioma)) | combination Emax (NCI-H2795 (Mesothelioma)) | combination Emax [12] | combination Emax (SH-4 (Melanoma)) | combination Emax [13] | combination Emax [14] | combination Emax [15] | combination Emax [16]
1 | CC1(C)CCC(CN2CCN(c3ccc(C(=O)NS(=O)(=O)c4ccc(NCC5CCOCC5)c([N+](=O)[O-])c4)c(Oc4cnc5[nH]ccc5c4)c3)CC2)=C(c2ccc(Cl)cc2)C1 [Venetoclax] + COc1cc(Nc2ncc3c(n2)-c2ccc(Cl)cc2C(c2c(F)cccc2OC)=NC3)ccc1C(=O)O [Alisertib] (first compound max 1 µM, 7x7, partner max 10 µM) | 0.523 | 0.28 | 0.75 | 0.463 | 0.643 | 0.611 | 0.841 | 1 | 0.361 | 0.697 | 0.748 | 0.993 | 0.459 | 0.936 | 0.967 | 0.146 | 0.96 | 0.611 | 0.326 | 0.798
2 | CN(CCO)CC[C@H](CSc1ccccc1)Nc1ccc(S(=O)(=O)NC(=O)c2ccc(N3CCC([C@@H](O)c4ccccc4-c4ccc(Cl)cc4)CC3)cc2)cc1S(=O)(=O)C(F)(F)F [AZD4320] + Cc1cc2ncnn2cc1Nc1ncc2c(n1)n(C1CCOCC1)c(=O)n2C [AZD7648] (first compound max 1 µM, 7x7, partner max 10 µM) | 0.372 | 0.161 | 0.317 | 0.304 | 0.895 | 0.325 | 0.392 | 1 | 0.134 | 0.138 | 0.747 | 0.966 | 0.293 | 0.43 | 0.898 | 0.16 | 0.97 | 0.416 | 0.216 | 0.712
3 | CC(=O)Nc1cccc(-n2c(=O)n(C3CC3)c(=O)c3c(Nc4ccc(I)cc4F)n(C)c(=O)c(C)c32)c1 [Trametinib] + Cc1nc(-c2cn3c(n2)-c2ccc(-c4cnn(C(C)(C)C(N)=O)c4)cc2OCC3)n(C(C)C)n1 [Taselisib] (first compound max 1 µM, 7x7, partner max 10 µM) | 0.763 | 0.774 | 0.416 | 0.681 | 0.362 | 0.987 | 1 | 0.149 | 0.993 | 0.895 | 0.799 | 0.822 | 0.587 | 1 | 0.675 | 0.999 | 1 | 0.596 | 0.653 | 0.355
4 | CN(CCO)CC[C@H](CSc1ccccc1)Nc1ccc(S(=O)(=O)NC(=O)c2ccc(N3CCC([C@@H](O)c4ccccc4-c4ccc(Cl)cc4)CC3)cc2)cc1S(=O)(=O)C(F)(F)F [AZD4320] + CN(C)CCCOc1ccc(-c2ccc3ncc4c(c3c2)n(C2CCOCC2)c(=O)n4C)cn1 [AZD0156] (first compound max 1 µM, 7x7, partner max 1 µM) | 0.163 | 0.145 | 0.206 | 0.218 | 0.785 | 0.259 | 0.289 | 0.997 | 0.108 | 0.0751 | 0.656 | 0.983 | 0.259 | 0.417 | 0.875 | 0.16 | 0.986 | 0.385 | 0.127 | 0.567
5 | Cc1cc2ncnn2cc1Nc1ncc2c(n1)n(C1CCOCC1)c(=O)n2C [AZD7648] + CCN(CCO)CCCOc1ccc2c(Nc3cc(CC(=O)Nc4cccc(F)c4)[nH]n3)ncnc2c1 [AZD2811] (first compound max 10 µM, 7x7, partner max 1 µM) | 0.443 | 0.299 | 0.697 | 0.519 | 0.345 | 0.449 | 0.571 | 0.517 | 0.187 | 0.251 | 0.492 | 0.837 | 0.468 | 0.45 | 0.584 | 0.345 | 0.51 | 0.641 | 0.376 | 0.701
6 | CCc1c2c(nc3ccc(O)cc13)-c1cc3c(c(=O)n1C2)COC(=O)[C@]3(O)CC [SN-38] + CN(C)CCCOc1ccc(-c2ccc3ncc4c(c3c2)n(C2CCOCC2)c(=O)n4C)cn1 [AZD0156] (first compound max 0.3 µM, 7x7, partner max 1 µM) | 0.925 | 0.781 | 0.859 | 0.157 | 0.341 | 0.676 | 0.512 | 1 | 0.254 | 0.0261 | 0.735 | 0.918 | 0.639 | 0.808 | 0.947 | 0.27 | 0.987 | 0.853 | 0.707 | 0.303
7 | Cc1c2c(nn1C)CSCc1cc(n(C)n1)CSc1cc(c3ccccc3c1)OCCCc1c(C(=O)O)n(C)c3c-2c(Cl)ccc13 [AZD5991] + CN(C)CCCOc1ccc(-c2ccc3ncc4c(c3c2)n(C2CCOCC2)c(=O)n4C)cn1 [AZD0156] (first compound max 1 µM, 7x7, partner max 1 µM) | 0.263 | 0.252 | 0.34 | 0.572 | 0.985 | 0.245 | 0.183 | 1 | 0.236 | 0.442 | 0.452 | 0.771 | 0.307 | 0.812 | 0.502 | 0.316 | 1 | 0.371 | 0.27 | 0.486
8 | CC1(C)CCC(CN2CCN(c3ccc(C(=O)NS(=O)(=O)c4ccc(NCC5CCOCC5)c([N+](=O)[O-])c4)c(Oc4cnc5[nH]ccc5c4)c3)CC2)=C(c2ccc(Cl)cc2)C1 [Venetoclax] + C[C@@H](Nc1cc(F)cc(F)c1)c1cc(C(=O)N(C)C)cc2c(=O)cc(N3CCOCC3)oc12 [AZD8186] (first compound max 1 µM, 7x7, partner max 3 µM) | 0.533 | 0.178 | 0.288 | 0.422 | 0.436 | 0.267 | 0.735 | 0.792 | 0.172 | 0.283 | 0.387 | 1 | 0.447 | 0.441 | 0.988 | 0.192 | 1 | 0.461 | 0.151 | 0.143
9 | COc1cccc2c1C(=O)c1c(O)c3c(c(O)c1C2=O)C[C@@](O)(C(=O)CO)C[C@@H]3O[C@H]1C[C@H](N)[C@H](O)[C@H](C)O1 [Doxorubicin] + Cc1cc2ncnn2cc1Nc1ncc2c(n1)n(C1CCOCC1)c(=O)n2C [AZD7648] (first compound max 1 µM, 7x7, partner max 10 µM) | 0.802 | 0.511 | 0.911 | 0.735 | 0.545 | 0.832 | 0.823 | 0.956 | 0.117 | 0.193 | 0.638 | 0.887 | 0.867 | 0.709 | 0.971 | 0.588 | 0.989 | 0.784 | 0.768 | 0.613
10 | COc1cccc(OCCCN)c1-c1cc(Nc2cnc(C#N)cn2)n[nH]1 [Prexasertib] + CN(C)CCCOc1ccc(-c2ccc3ncc4c(c3c2)n(C2CCOCC2)c(=O)n4C)cn1 [AZD0156] (first compound max 1 µM, 7x7, partner max 1 µM) | 0.863 | 0.611 | 0.96 | 0.762 | 0.512 | 0.975 | 0.767 | 0.979 | 0.483 | 0.587 | 0.492 | 1 | 0.745 | 0.789 | 0.977 | 0.807 | 0.642 | 0.821 | 0.678 | 0.902
11 | Cc1c2c(nn1C)CSCc1cc(n(C)n1)CSc1cc(c3ccccc3c1)OCCCc1c(C(=O)O)n(C)c3c-2c(Cl)ccc13 [AZD5991] + C=CCn1c(=O)c2cnc(Nc3ccc(N4CCN(C)CC4)cc3)nc2n1-c1cccc(C(C)(C)O)n1 [AZD1775] (first compound max 1 µM, partner max 1 µM) | 0.702 | 0.465 | 0.916 | 0.812 | 1 | 0.677 | 0.482 | 1 | 0.625 | 0.745 | 0.615 | 1 | 0.712 | 0.881 | 0.93 | 0.616 | 1 | 0.847 | 0.582 | 0.784
12 | COc1cccc(OCCCN)c1-c1cc(Nc2cnc(C#N)cn2)n[nH]1 [Prexasertib] + Cc1cc2ncnn2cc1Nc1ncc2c(n1)n(C1CCOCC1)c(=O)n2C [AZD7648] (first compound max 1 µM, 7x7, partner max 10 µM) | 0.821 | 0.585 | 0.922 | 0.756 | 0.583 | 0.993 | 0.704 | 0.984 | 0.504 | 0.596 | 0.533 | 1 | 0.693 | 0.765 | 0.959 | 0.709 | 0.629 | 0.821 | 0.678 | 0.902
